Assay: Serum ALT and GGT after injections in mice
Format: in vivo
Conditions: positive control, one day after intraperitoneal injection of 40 µl of 50% in mineral oil, n=4
Protocol: Blood obtained from the retro-orbit sinus was analyzed for serum concentration of hGH using the RIA, HGH-TGES 100T kit from Nichols Institute (San Juan Capistrano, CA). Serum ALT and GGT levels were done using EKTACHEM DT slides and a KODAK EKTACHEM DT 60 ANALYZER as recommended by the manufacturer (Kodak. Rochester, NY)
Similar results were also obtained when bile ducts were injected with 100 µg of pCILuc in 1 ml of 15% mannitol and 2.5 units heparin/ml in normal saline solution. A mean total luciferase protein/liver of 15.39 µg/liver (Fig. 1A. BD+CL) was obtained when the hepatic vein was clamped as compared to a mean total luciferase protein/liver of 1.33 µg/liver (Fig 1A. BD-CL) without occluding the hepatic vein If mannitol was omitted then the bile duct injections without clamping any blood vessels yielded approximately 15-fold less luciferase (0 086 µg/liver ± 0.06, n = 25). […] Serum ALT and GGT assays were performed on mice one and eight days after each of the above injections with pCILuc (4 mice for each condition). No increases in […] were observed after any of the injections including the bile duct injections. Serum ALT levels increased to 200-400 U/L one day after portal vein and bile duct injections. One day after IVC injections serum ALT levels increased to ∼1500 U/L in half of the mice but was only ∼250 U/L in the other half. […]

For `ClC(Cl)(Cl)Cl` [carbon tetrachloride], the “Serum ALT, average” value was 25,900 U/L.

— patent publication EP0996337B1, “A PROCESS OF DELIVERING A POLY[…] THE VASCULAR SYSTEM” (Mirus Bio Corporation, priority 1997, dated 1998)
